Measured values taken from ChEMBL document CHEMBL5291721, “A preclinical secondary pharmacology resource illuminates target-adverse drug reaction associations of marketed drugs” (Nat Commun, 2023).

What was measured:
[1] = molecular target: T1, Muscarinic acetylcholine receptor M2 (Homo sapiens, UniProt P08172)
T1 sequence (P08172 whole entry): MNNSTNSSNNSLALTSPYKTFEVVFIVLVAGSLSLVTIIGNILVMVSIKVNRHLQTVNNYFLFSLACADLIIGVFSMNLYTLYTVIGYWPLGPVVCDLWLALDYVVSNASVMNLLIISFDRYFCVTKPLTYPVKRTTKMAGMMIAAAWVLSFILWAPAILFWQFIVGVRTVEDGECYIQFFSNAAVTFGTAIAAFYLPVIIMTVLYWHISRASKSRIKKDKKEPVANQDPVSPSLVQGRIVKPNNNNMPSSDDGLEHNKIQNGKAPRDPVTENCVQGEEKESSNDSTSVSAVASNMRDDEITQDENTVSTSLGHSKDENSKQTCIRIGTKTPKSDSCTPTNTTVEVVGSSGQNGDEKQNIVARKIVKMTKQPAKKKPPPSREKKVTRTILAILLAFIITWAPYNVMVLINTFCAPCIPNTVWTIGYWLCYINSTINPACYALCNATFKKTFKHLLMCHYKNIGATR

Prothrombin = Prothrombin (Homo sapiens, UniProt P00734); format: functional
[2] = molecular target: Gamma-aminobutyric acid receptor subunit alpha-1 (Rattus norvegicus, UniProt P62813)
Chain of Gamma-aminobutyric acid receptor subunit alpha-1 (P62813 whole entry): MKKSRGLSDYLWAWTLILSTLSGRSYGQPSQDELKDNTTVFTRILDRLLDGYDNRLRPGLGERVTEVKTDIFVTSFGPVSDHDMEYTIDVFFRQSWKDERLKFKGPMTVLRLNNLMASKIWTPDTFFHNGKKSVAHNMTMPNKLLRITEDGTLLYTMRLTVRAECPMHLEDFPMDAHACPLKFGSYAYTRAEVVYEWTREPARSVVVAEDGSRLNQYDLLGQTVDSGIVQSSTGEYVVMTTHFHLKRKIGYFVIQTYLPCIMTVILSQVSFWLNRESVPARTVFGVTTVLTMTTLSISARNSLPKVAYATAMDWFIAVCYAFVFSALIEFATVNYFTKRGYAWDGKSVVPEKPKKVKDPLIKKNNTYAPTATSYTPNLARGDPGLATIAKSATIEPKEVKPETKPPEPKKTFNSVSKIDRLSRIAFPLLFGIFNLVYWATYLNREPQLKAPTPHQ

[3] = molecular target: T2, 5-hydroxytryptamine receptor 1A (Homo sapiens, UniProt P08908)
T2 sequence (P08908 whole entry): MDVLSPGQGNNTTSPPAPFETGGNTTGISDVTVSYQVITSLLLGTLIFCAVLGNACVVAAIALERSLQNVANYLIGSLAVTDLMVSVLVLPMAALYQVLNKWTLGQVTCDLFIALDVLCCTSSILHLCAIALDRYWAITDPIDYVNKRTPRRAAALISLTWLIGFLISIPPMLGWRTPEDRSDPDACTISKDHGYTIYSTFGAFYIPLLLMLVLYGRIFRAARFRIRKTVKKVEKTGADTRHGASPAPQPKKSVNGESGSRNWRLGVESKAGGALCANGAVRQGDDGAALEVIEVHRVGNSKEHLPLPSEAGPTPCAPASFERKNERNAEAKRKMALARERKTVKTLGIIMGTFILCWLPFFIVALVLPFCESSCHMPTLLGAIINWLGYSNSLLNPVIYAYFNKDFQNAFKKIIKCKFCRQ

[4] = molecular target: 5-hydroxytryptamine receptor 2B (Homo sapiens, UniProt P41595); format: functional, cell-based
Chain of 5-hydroxytryptamine receptor 2B (P41595 whole entry): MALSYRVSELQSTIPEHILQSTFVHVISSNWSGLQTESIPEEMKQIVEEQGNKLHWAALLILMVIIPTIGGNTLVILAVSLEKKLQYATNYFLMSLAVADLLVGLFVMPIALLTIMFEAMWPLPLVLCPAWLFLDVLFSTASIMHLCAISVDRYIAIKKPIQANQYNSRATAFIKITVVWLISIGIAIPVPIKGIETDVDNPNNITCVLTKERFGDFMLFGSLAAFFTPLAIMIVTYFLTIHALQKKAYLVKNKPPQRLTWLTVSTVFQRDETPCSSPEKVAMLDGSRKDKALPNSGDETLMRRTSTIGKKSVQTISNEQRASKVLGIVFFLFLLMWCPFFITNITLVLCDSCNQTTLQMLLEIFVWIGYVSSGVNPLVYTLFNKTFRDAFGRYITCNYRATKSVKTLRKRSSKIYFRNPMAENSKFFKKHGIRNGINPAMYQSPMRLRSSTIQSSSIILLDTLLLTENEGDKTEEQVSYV

[5] = molecular target: Voltage-gated inwardly rectifying potassium channel KCNH2 (Homo sapiens, UniProt Q12809); format: functional; conditions: read-out: AC50
Chain of Voltage-gated inwardly rectifying potassium channel KCNH2 (Q12809 whole entry): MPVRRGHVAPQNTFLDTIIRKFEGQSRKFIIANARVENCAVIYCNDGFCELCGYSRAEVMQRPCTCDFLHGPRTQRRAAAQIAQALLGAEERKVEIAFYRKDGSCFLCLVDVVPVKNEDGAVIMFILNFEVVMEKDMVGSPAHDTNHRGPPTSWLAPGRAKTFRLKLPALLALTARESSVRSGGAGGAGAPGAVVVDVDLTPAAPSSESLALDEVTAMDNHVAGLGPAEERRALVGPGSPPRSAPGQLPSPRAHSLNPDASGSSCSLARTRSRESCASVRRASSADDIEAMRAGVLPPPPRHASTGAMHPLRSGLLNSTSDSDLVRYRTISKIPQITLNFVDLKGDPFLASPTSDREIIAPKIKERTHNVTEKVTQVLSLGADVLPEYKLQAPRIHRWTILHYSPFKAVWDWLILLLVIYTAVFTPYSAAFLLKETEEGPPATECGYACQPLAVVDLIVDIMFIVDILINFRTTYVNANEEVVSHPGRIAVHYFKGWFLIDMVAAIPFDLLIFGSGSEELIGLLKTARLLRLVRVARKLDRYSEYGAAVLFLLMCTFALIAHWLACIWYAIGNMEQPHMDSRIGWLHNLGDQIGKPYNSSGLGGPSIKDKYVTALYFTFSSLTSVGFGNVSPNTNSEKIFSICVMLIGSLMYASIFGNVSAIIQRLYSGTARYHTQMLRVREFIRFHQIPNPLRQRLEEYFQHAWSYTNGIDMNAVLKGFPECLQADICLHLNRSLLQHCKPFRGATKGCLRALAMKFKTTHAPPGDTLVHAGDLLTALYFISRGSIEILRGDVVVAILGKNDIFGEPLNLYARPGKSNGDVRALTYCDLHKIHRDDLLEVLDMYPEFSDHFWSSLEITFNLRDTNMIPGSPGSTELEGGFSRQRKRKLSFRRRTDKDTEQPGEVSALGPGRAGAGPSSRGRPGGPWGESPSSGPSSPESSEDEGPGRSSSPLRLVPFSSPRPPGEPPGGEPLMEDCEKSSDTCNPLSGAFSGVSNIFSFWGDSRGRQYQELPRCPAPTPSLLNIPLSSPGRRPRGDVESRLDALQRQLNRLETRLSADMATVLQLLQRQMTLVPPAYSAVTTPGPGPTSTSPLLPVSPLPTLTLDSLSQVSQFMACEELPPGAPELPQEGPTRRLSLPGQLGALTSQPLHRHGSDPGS

[6] = molecular target: T3, Amine oxidase [flavin-containing] A (Homo sapiens, UniProt P21397); format: functional
T3 sequence (P21397 whole entry): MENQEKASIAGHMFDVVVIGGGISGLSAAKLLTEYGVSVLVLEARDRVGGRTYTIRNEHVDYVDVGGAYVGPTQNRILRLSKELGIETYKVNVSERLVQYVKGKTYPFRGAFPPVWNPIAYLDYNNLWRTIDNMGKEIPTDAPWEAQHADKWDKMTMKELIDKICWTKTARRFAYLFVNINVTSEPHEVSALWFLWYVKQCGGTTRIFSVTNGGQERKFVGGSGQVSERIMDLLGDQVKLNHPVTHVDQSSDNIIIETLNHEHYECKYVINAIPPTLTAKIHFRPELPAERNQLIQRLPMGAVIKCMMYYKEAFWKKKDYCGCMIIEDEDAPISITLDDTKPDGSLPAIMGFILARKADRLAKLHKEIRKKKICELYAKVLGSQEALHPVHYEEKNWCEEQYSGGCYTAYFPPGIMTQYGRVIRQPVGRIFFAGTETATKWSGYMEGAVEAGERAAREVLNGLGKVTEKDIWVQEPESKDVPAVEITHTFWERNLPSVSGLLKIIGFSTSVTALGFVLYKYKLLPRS

[7] = molecular target: Delta-type opioid receptor (Homo sapiens, UniProt P41143)
Chain of Delta-type opioid receptor (P41143 whole entry): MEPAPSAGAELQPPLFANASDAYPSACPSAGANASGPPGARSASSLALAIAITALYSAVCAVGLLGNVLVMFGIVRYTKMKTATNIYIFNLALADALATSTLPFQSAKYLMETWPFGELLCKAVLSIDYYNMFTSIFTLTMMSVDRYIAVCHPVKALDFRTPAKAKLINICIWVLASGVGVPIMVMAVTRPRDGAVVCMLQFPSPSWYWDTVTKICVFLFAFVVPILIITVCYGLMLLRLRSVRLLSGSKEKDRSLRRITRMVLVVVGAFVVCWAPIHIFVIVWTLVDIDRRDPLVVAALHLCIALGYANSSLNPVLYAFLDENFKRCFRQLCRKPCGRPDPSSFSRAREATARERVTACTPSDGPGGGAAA

[8] = molecular target: 3',5'-cyclic-AMP phosphodiesterase 4A (Homo sapiens, UniProt P27815); format: functional
Chain of 3',5'-cyclic-AMP phosphodiesterase 4A (P27815 whole entry): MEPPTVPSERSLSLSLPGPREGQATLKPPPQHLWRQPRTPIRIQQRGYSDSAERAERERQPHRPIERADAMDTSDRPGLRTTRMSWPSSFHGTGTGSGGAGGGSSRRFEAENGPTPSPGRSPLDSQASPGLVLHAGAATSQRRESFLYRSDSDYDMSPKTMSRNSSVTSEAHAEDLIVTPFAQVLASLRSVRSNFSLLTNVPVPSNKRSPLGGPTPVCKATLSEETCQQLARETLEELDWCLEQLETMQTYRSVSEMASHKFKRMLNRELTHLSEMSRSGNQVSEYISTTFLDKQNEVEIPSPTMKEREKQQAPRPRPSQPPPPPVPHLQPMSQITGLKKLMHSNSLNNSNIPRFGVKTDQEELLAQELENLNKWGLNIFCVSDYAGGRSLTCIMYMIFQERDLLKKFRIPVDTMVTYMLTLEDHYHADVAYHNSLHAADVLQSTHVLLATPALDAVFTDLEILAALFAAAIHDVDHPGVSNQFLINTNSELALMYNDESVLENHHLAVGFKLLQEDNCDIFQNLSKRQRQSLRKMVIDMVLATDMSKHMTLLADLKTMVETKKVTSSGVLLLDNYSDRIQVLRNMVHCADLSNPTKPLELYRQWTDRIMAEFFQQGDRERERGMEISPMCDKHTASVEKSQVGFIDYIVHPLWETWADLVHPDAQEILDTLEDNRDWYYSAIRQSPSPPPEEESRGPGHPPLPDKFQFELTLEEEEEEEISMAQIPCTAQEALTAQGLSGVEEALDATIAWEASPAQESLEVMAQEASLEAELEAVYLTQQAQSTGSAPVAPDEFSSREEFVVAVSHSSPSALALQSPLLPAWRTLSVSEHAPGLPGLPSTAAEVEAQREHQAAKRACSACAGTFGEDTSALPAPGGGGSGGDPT

Progesterone receptor = molecular target: T4, Progesterone receptor (Homo sapiens, UniProt P06401)
T4 sequence (P06401 whole entry): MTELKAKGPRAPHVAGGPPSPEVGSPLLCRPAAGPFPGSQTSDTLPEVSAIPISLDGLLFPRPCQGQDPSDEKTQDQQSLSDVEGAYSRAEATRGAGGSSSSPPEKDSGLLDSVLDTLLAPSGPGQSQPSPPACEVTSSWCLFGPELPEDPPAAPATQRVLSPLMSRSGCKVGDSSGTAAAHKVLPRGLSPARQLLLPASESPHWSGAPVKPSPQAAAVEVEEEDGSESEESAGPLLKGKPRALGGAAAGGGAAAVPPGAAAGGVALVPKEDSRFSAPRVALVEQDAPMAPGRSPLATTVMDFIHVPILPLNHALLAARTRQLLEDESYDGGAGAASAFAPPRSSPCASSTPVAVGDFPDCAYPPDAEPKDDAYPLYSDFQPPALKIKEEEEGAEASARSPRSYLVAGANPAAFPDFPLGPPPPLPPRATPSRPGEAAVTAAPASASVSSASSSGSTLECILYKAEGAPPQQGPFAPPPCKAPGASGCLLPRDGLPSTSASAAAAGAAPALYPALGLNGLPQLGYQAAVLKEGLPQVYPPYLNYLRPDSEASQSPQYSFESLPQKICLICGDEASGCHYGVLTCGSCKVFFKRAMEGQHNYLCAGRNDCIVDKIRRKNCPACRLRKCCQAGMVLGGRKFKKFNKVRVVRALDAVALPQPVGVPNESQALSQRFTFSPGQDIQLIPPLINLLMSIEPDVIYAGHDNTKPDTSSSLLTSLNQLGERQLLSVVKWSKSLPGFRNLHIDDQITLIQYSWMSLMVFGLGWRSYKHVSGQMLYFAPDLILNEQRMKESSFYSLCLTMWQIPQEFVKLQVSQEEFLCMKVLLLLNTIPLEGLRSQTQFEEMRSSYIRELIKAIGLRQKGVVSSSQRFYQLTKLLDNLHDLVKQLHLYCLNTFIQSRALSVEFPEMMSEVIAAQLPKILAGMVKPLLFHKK

[9] = molecular target: Sodium-dependent dopamine transporter (Homo sapiens, UniProt Q01959)
Chain of Sodium-dependent dopamine transporter (Q01959 whole entry): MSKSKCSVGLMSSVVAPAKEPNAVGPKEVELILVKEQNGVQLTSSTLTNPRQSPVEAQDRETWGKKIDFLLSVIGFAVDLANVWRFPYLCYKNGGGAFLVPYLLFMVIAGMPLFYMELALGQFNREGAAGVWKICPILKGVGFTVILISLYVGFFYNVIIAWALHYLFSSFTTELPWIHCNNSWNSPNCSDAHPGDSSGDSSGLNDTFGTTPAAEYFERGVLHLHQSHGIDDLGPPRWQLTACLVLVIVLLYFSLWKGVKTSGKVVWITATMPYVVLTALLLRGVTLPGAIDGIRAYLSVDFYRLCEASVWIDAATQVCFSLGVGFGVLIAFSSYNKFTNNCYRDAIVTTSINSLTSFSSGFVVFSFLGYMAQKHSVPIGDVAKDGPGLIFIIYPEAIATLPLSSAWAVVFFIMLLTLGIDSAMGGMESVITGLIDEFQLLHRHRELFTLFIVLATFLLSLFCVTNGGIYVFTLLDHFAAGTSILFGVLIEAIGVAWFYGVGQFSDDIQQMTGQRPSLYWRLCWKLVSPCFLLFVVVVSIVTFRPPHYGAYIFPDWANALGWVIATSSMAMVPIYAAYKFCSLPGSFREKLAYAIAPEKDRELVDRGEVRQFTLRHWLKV
Note: assay procedure not described here.

| SMILES | AC50 [1] | AC50 (Prothrombin) | AC50 [2] | AC50 [3] | AC50 [4] | AC50 [5] | AC50 [6] | AC50 [7] | AC50 [8] | AC50 (Progesterone receptor) | AC50 [9] |
| --- | --- | --- | --- | --- | --- | --- | --- | --- | --- | --- | --- |
| C[C@]1(COc2ccc(N3CCC(Oc4ccc(OC(F)(F)F)cc4)CC3)cc2)Cn2cc([N+](=O)[O-])nc2O1 | > 30 µM | > 30 µM | > 10 µM | > 30 µM | > 30 µM | > 30 µM | > 30 µM | > 30 µM | > 30 µM | > 30 µM | > 30 µM |
| O=C(Nc1nc(-c2cc(Cl)cs2)c(N2CCN(C3CCCCC3)CC2)s1)c1cnc(N2CCC(C(=O)O)CC2)c(Cl)c1 [AVATROMBOPAG] | > 30 µM | > 30 µM | > 10 µM | > 30 µM | > 30 µM | 12.4 µM | > 30 µM | > 10 µM | > 30 µM | > 30 µM | > 30 µM |
| CO[C@@]1(NC(=O)CSCC#N)C(=O)N2C(C(=O)O)=C(CSc3nnnn3C)CS[C@@H]21 [CEFMETAZOLE] | > 30 µM | > 30 µM | – | > 30 µM | > 30 µM | > 30 µM | > 30 µM | > 30 µM | > 30 µM | > 30 µM | > 30 µM |
| CO/N=C(\C(=O)N[C@@H]1C(=O)N2C(C(=O)[O-])=C(C[n+]3cccc4c3CCC4)CS[C@H]12)c1csc(N)n1 [CEFPIROME] | > 30 µM | > 30 µM | > 30 µM | > 30 µM | > 30 µM | > 30 µM | > 30 µM | > 30 µM | > 30 µM | > 30 µM | > 30 µM |
| Oc1c(I)cc(Cl)c2cccnc12 [CLIOQUINOL] | > 30 µM | > 30 µM | > 30 µM | > 30 µM | > 30 µM | > 30 µM | > 30 µM | > 30 µM | > 30 µM | > 30 µM | > 30 µM |
| CCn1cc(C(=O)O)c(=O)c2cc(F)c(N3CCNCC3)nc21 [ENOXACIN] | > 30 µM | > 30 µM | > 10 µM | > 30 µM | > 30 µM | > 30 µM | > 30 µM | > 10 µM | > 30 µM | > 30 µM | > 30 µM |
| CNC(=O)Oc1ccc2c(c1)[C@]1(C)CCN(C)[C@@H]1N2C [PHYSOSTIGMINE] | > 30 µM | > 30 µM | > 30 µM | > 30 µM | > 30 µM | > 30 µM | > 30 µM | > 30 µM | > 30 µM | > 30 µM | > 30 µM |
| C1CNCCN1 [PIPERAZINE] | > 30 µM | > 30 µM | – | > 30 µM | > 30 µM | > 30 µM | > 30 µM | – | 28.4 µM | > 30 µM | > 30 µM |
| CO[C@H]1/C=C/O[C@@]2(C)Oc3c(C)c(O)c4c(O)c(cc(O)c4c3C2=O)NC(=O)/C(C)=C\C=C\[C@H](C)[C@H](O)[C@@H](C)[C@@H](O)[C@@H](C)[C@H](OC(C)=O)[C@@H]1C [RIFAMYCIN] | > 30 µM | > 30 µM | – | > 30 µM | > 30 µM | > 30 µM | > 30 µM | – | > 30 µM | > 30 µM | > 30 µM |
| CCCC(=O)O[C@H]1[C@H](C)O[C@@H](O[C@H]2[C@H](N(C)C)[C@@H](O)[C@H](O[C@H]3[C@@H](CC=O)C[C@@H](C)[C@@H](O)/C=C/C=C/C[C@@H](C)OC(=O)C[C@@H](O)[C@@H]3OC)O[C@@H]2C)C[C@@]1(C)OC(=O)CC [ROKITAMYCIN] | > 30 µM | > 30 µM | – | > 30 µM | > 30 µM | > 30 µM | > 30 µM | – | > 30 µM | > 30 µM | > 30 µM |
| CCCCCCCCCCCCCCCCCC(=O)NCCCC[C@H](NC(=O)CC[C@@H](NC(=O)[C@H](C)NC(=O)[C@@H](C)O[C@H]1[C@H](O)[C@@H](CO)OC(O)[C@@H]1NC(C)=O)C(N)=O)C(=O)O (some centres not stated) [ROMURTIDE] | > 30 µM | > 30 µM | – | 6.21 µM | > 30 µM | 26 µM | > 30 µM | – | > 3 µM | 2.94 µM | > 30 µM |
| O=C(Oc1ccccc1C(=O)O)c1ccccc1O [SALSALATE] | > 30 µM | > 30 µM | – | > 30 µM | > 30 µM | > 30 µM | > 30 µM | – | > 30 µM | > 30 µM | > 30 µM |
| COc1cc([C@@H]2c3cc4c(cc3[C@@H](O[C@@H]3O[C@@H]5CO[C@@H](c6cccs6)O[C@H]5[C@H](O)[C@H]3O)[C@H]3COC(=O)[C@H]23)OCO4)cc(OC)c1O [TENIPOSIDE] | > 30 µM | > 30 µM | – | > 30 µM | > 30 µM | > 30 µM | > 30 µM | – | > 30 µM | > 30 µM | > 30 µM |
| c1ccc2[nH]c(-c3cscn3)nc2c1 [THIABENDAZOLE] | > 30 µM | > 30 µM | – | > 30 µM | > 30 µM | > 30 µM | > 30 µM | – | > 30 µM | > 30 µM | > 30 µM |
| CCSc1ccc2c(c1)N(CCCN1CCN(C)CC1)c1ccccc1S2 [THIETHYLPERAZINE] | 2.24 µM | > 30 µM | – | 0.449 µM | > 30 µM | 1.2 µM | > 30 µM | – | > 30 µM | 24.4 µM | 3.87 µM |
| C[C@@H]1C[C@H]2[C@@H]3CCC4=CC(=O)C=C[C@]4(C)C3=CC[C@]2(C)[C@H]1C(=O)CN1CCN(c2cc(N3CCCC3)nc(N3CCCC3)n2)CC1 [TIRILAZAD] | 0.432 µM | > 30 µM | – | > 30 µM | > 30 µM | 1.9 µM | > 30 µM | – | 19.4 µM | 6.37 µM | > 30 µM |
